ChEMBL document CHEMBL1201862, “PubChem BioAssay data set” (2004)
Activity calls are given as the source filed them.

How the values were obtained:
[1] = biological target: Protein Wnt-3a (Mus musculus, UniProt P27467); experiment: SAR analysis of small molecule antagonists of Gli-SUFU in a Wnt3a luminescent reporter assay.; type: functional
[2] = biological target: T1, Scavenger receptor class B member 1 (Mus musculus, UniProt Q61009); experiment: inhibitors of SR-BI-mediated HDL uptake, dose response, cell-based, ldlA[mSR-BI] CHO, DiI fluorescence, dry powder, set 10 (AID 624029); type: functional
T1 sequence (Q61009 whole entry): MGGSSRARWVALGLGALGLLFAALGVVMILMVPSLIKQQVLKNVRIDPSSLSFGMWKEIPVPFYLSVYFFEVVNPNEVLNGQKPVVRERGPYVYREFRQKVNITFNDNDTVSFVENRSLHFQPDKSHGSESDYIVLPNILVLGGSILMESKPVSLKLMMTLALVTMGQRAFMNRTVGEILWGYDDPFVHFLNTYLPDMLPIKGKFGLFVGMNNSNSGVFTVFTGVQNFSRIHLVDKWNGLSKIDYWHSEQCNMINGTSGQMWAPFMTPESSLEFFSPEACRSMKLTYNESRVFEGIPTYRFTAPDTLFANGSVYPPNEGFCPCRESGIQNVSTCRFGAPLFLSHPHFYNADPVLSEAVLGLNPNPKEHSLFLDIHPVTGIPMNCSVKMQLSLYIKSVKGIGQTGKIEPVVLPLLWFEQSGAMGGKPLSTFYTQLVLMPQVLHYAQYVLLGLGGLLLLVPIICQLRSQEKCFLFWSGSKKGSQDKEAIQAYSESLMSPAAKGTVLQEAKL

[3] = cytotoxicity in ldlA[mSR-BI] CHO cells, dose response, cytotoxicity control for SR-BI HDL uptake inhibitor project, cell-based, CellTiter-Glo, 24 h, powder samples, set 7 (AID 624026); type: functional
[4] = biological target: T1, Scavenger receptor class B member 1; experiment: inhibitors of SR-BI dependent HDL uptake, dose response, ldlA[mSR-BI] CHO cells, fluorescence plate reader, dry powder, set 9 (AID 623880); type: functional, cell-based
[5] = inhibitors of clade B AD8 Env fusion, dose response, cell-based, cherry-pick (AID 652062); type: functional;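 also: luciferase signal from cell-cell fusion driven by HIV-1 clade B AD8 Env; potency is for inhibitors of fusion seen as a drop in luminescence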
[6] = CEM21 lymphoblast cell cytotoxicity, dose response, cytotoxicity control for viral fusion inhibitor project, CellTiter-Glo luminescence, cherry-picked (AID 652042); type: functional, cell-based;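 also: potency for signal decrease meaning cytotoxicity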
[7] = ZM109 Env clade C HIV-1 fusion inhibitors, dose response, HeLa effector, CEM target cells, luciferase, cherry-pick (AID 652058); type: functional, cell-based
[8] = off-target signal loss in HeLa-CEM21 co-culture – HeLa F-luc CTL cells, cherry-picked, counter-screen for HIV-1 Env fusion inhibitor project, dose response (AID 652040); type: functional, cell-based;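 also: potency for signal decrease marking cytotoxic or nonspecific inhibition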
[9] = inhibitors of HIV Env-driven cell fusion, dose response, cherry-pick (AID 652057); type: functional, cell-based
[10] = biological target: SUMO-activating enzyme (Homo sapiens, UniProt Q9UBT2); experiment: SUMOylation inhibitor hit validation, confirmation, SUMOylation inhibitor project, biochemical, AlphaScreen (AID 2018); type: functional
Chain of SUMO-activating enzyme (Q9UBE0 whole entry, the tested form may be a part): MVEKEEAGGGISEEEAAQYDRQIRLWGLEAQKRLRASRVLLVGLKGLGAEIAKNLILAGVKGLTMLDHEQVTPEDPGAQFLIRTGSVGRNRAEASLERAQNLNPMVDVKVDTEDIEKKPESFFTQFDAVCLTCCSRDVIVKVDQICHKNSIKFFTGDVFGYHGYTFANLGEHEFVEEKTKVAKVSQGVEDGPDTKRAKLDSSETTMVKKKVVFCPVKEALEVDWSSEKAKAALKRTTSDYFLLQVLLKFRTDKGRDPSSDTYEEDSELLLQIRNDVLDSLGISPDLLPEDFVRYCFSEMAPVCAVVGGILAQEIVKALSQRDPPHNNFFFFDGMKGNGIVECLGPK
Chain of SUMO-activating enzyme (Q9UBT2 whole entry, the tested form may be a part): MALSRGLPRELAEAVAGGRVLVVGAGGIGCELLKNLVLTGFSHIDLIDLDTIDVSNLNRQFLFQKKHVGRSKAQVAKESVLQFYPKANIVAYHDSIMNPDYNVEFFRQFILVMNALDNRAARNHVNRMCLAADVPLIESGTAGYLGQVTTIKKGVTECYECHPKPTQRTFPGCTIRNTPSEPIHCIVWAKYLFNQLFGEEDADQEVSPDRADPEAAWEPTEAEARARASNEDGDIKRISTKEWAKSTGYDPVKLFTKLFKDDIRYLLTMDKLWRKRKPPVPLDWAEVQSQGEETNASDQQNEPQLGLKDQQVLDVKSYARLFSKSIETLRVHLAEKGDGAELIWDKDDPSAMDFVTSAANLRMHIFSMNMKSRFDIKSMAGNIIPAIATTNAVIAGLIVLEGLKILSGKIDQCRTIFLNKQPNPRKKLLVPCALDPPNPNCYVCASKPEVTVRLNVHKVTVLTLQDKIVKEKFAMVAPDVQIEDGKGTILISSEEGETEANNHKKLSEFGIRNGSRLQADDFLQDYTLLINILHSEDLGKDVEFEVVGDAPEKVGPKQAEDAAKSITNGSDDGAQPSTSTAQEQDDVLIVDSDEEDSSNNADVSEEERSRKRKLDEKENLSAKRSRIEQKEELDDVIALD

[11] = biological target: Arf-GAP with SH3 domain, ANK repeat and PH domain-containing protein 1 (Homo sapiens, UniProt Q9ULH1); type: functional;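 also: biochemical fluorescence polarization dose–response screen measuring inhibition of ASAP1; ASAP1 GAP domain stimulating GTP hydrolysis by truncated human ARF1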
Chain of Arf-GAP with SH3 domain, ANK repeat and PH domain-containing protein 1 (Q9ULH1 whole entry, the tested form may be a part): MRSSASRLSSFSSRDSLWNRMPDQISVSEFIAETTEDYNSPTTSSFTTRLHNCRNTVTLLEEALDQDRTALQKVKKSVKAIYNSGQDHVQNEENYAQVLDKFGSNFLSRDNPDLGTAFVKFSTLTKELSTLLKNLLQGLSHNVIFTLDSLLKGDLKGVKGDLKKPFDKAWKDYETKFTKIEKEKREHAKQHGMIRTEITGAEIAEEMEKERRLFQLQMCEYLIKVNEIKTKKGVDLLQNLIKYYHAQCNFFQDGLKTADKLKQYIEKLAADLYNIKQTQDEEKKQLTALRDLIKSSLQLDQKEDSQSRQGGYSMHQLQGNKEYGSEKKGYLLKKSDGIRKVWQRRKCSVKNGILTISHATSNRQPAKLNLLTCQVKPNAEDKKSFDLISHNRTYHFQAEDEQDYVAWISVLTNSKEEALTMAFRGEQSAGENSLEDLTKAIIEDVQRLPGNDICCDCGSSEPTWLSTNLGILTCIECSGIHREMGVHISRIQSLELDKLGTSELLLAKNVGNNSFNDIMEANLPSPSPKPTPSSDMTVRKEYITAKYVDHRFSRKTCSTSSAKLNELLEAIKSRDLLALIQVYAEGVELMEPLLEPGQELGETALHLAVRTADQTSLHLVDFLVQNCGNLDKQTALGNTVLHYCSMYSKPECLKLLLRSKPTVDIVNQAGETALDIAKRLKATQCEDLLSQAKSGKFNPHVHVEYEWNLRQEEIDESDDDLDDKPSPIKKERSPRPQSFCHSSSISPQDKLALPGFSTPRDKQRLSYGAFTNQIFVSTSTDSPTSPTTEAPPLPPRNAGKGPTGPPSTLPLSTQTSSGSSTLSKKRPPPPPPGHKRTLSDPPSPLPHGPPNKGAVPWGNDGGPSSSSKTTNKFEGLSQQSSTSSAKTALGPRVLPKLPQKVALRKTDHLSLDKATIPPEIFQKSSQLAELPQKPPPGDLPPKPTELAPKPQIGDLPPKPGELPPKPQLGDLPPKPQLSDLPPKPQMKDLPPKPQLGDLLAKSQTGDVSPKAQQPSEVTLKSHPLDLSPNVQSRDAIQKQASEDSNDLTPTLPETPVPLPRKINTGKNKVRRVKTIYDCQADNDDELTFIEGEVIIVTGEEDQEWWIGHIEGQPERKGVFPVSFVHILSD

[12] = biological target: Genome polyprotein (dengue virus type 2, UniProt P29990); experiment: Dengue-2 NS5 methyltransferase inhibitors, primary screen, biochemical, confirmation dose response (AID 588689); type: functional
Chain of Genome polyprotein (P29990 2492-3391 limits assumed): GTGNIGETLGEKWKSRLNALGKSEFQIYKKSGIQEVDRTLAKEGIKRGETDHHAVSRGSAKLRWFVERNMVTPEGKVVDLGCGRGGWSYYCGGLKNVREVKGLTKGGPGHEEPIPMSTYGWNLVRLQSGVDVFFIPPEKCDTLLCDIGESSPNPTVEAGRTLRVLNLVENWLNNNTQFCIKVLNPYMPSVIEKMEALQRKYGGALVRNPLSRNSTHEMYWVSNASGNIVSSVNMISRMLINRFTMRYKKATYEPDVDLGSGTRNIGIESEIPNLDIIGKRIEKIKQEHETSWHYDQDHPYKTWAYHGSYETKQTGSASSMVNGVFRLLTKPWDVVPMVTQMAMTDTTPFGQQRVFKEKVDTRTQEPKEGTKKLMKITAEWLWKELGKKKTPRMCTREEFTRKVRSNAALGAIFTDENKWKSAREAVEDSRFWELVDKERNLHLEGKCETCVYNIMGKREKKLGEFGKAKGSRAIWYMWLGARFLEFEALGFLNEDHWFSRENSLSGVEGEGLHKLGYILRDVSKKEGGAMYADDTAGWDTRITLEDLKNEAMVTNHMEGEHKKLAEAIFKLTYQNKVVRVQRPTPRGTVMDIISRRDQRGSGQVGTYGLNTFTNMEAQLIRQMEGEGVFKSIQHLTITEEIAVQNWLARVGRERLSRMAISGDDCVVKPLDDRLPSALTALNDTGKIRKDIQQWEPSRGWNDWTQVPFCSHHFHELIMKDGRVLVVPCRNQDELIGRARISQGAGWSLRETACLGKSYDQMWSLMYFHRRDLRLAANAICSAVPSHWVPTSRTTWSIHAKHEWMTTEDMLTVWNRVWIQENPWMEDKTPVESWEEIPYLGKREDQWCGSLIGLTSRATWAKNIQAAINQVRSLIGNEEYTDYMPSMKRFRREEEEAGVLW

[13] = biological target: Fructose-bisphosphate aldolase (Mycobacterium tuberculosis, UniProt P9WQA3); experiment: Fluorescence-based biochemical high throughput dose response assay for inhibitors of the fructose-bisphosphate aldolase (FBA) of M. tuberculosis.; type: functional
Chain of Fructose-bisphosphate aldolase (P9WQA3 whole entry): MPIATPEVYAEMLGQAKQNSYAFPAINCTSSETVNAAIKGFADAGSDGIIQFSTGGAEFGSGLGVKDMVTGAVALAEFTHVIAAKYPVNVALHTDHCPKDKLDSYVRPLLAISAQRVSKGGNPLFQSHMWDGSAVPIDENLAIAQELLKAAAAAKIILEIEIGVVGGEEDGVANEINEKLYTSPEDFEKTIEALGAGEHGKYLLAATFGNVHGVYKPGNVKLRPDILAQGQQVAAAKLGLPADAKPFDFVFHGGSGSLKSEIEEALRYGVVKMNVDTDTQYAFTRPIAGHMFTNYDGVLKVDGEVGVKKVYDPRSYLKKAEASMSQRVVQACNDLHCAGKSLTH

[14] = cells; type: functional, cell-based
[15] = biological target: T2, Trace amine-associated receptor 1 (Homo sapiens, UniProt Q96RJ0); experiment: Fluorescence-based cell-based high throughput dose response assay to identify agonists of the human trace amine associated receptor 1 (TAAR1).; type: functional
T2 sequence (Q96RJ0 whole entry): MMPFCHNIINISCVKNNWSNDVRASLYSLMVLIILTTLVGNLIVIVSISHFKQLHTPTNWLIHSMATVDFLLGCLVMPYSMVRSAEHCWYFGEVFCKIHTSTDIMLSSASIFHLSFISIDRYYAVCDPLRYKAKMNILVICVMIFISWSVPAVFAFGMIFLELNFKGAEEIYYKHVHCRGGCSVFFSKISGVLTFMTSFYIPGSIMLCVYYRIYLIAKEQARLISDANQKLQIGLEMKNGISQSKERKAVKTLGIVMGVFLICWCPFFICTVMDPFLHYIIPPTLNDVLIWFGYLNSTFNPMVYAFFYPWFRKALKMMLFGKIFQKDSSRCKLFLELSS

[16] = cells; type: functional, cell-based; remark: listed apart in the source
[17] = biological target: T2, Trace amine-associated receptor 1; experiment: Counterscreen for agonists of the human trace amine associated receptor 1 (hTAAR1): Fluorescence-based cell-based high throughput dose response assay to identify hTAAR1 agonist that also desensitize TAAR1 receptor response.; type: functional

Chain of Protein Wnt-3a (P27467 whole entry): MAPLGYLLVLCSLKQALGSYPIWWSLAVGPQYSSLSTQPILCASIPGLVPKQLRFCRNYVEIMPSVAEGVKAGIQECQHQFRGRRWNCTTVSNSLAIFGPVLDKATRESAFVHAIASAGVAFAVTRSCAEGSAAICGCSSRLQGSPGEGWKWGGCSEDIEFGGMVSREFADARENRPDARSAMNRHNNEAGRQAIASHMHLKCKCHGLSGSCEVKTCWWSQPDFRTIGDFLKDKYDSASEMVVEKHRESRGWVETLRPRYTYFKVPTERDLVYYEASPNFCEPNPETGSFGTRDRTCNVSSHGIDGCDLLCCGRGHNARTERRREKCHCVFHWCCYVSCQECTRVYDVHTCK

Q: With COc1ccccc1C(=O)Nc1cc(N2CCCCC2)ncn1 as the compound, how does the IC50 [1] read?
A: > 21.8 µM (inactive)

Q: For CC(=O)Nc1ccc(Cl)c(C(=O)Nc2ccc(N3CCN(C(=O)OC(C)(C)C)CC3)cc2)c1, which AC50 [2] is on record?
A: 0.00402 µM (active)

Q: What about the AC50 [3] of the same compound?
A: > 70 µM (inactive)

Q: What about the AC50 [4] of the same compound?
A: 0.00659 µM (active)

Q: For Cc1ccc(C)c(OCC(=O)Nc2nonc2NC(=O)COc2cc(C)ccc2C)c1, which AC50 [5] is on record?
A: 4.31 µM (active)

Q: And the AC50 [6]?
A: 25.4 µM (active)

Q: What about the AC50 [7] of the same compound?
A: 1.4 µM (active)

Q: And the AC50 [8]?
A: 6.79 µM (active)

Q: What about the AC50 [9] of the same compound?
A: 2.68 µM (active)

Q: What about the IC50 [10] of the same compound?
A: 45.4 µM (active)

Q: With Cc1cc(C)c2nc(N3C(=O)C(O)=C(C(=O)c4ccco4)C3c3cccc(O)c3)sc2c1 (configuration not stated) as the compound, how does the IC50 [11] read?
A: 81.8 µM (inactive)

Q: And the IC50 [12]?
A: 32.4 µM (active)

Q: Which IC50 [13] does the source give for COC(=O)C1=CN(Cc2ccc(F)cc2)C=C(C(=O)OC)C1c1cc(OC)c(OC)c(OC)c1 here?
A: 1.65 µM (active)

Q: With O=C(NCCc1cccs1)C1CC(c2cccc(F)c2)=NO1 (configuration not stated) as the compound, how does the EC50 [14] read?
A: > 29.9 µM (inactive)

Q: And the EC50 [15]?
A: 13.7 µM (inactive)

Q: What about the IC50 [16] of the same compound?
A: > 29.9 µM (inactive)

Q: What about the IC50 [17] of the same compound?
A: 2.6 µM (active)
